“Also recorded” adds a separate entry of the source.
What was measured:
[1] = test system: MCF-7/ADR cells; assay: Acridine orange labeling of acidic compartments (confocal microscopy); assay type: cell-based, human; settings: for red-orange acridine orange fluorescence of cytoplasmic organelles after addition of agent: MCF-7/ADR, 30 minutes, Monensin 5 μM, Bafilomycin A1 500 nM, concanomycin 100 nM, Tamoxifen 5 or 10 μM, verapamil 10 μM, cyclosporin A 10 μM
Method: Confocal fluorescence imaging of intracellular pH and acidic compartments: Acridine orange (2 μg/ml media; 4 mg/ml stock in water) was added directly to the chambers and the cells were incubated with the dye at 37° C. for 30 minutes. Cells in the presence of acridine orange were then examined at room temperature with an Insight Bilateral Laser Scanning Confocal Microscope (Meridian Instruments, Okemos, Mich.). […] Optical sections of the fluorescent sample were recorded at 0.5 micron intervals. […] The acetoxymethylester derivative of SNAFL-calcein (15 μg/ml) (Molecular Probes, Eugene, Oreg.) (a radiometric fluorescent probe for pH) was added to both MCF-7 and MCF-7adr cells. The ester linked fluorescent probe enters the cell passively where the esters are hydrolyzed by esterases located in the cytoplasm and intracellular vesicles. The SNAFL-calcein is then ionically trapped within the cytoplasm and vesicular compartments. […] These images were then compared to standard curves that were obtained in the following manner. […] Cells treated with monensin were exposed to the drug (10 μg/ml of media) for 30 minutes at 37° C. prior to labeling with SNAFL-calcein as described above. All cells were examined at room temperature.
The green and red emissions were collected using two photomultiplier tubes. […] Green emission was next passed through a 530 nm/30 nm bandpass filter and collected by the on-axis photomultiplier tube. Red emission was passed through a 610 nm longpass filter and collected by the 90° side photomultiplier tube.
Optical sections of the fluorescent samples were recorded at 0.5 micron intervals with a 60×oil immersion objective.

[2] = test system: MCF-7/ADR cells; assay: Subcellular distribution of Adriamycin fluorescence (confocal microscopy); assay type: cell-based, human; settings: MCF-7/ADR, Monensin 5 μM, Bafilomycin A1 500 nM, concanomycin 100 nM, Tamoxifen 10 μM (50 μM in Example 3), verapamil 10 μM, cyclosporin 5 μM
Method: Adriamycin can be excited between 350 nm-550 nm and emits between 400 nm-700 nm.
Labeling of Cells with Adriamycin: Cells were loaded with Adriamycin (10 μM) added to the perfusion medium. […] For epi-fluorescence, the cells were excited with 450-490 nm filter and emission was monitored with a 510 nm longpass filter.

[3] = test system: MCF-7/ADR cells; assay: Organelle-specific pH measurements with targeted SNARF and FITC probes in living cells; assay type: cell-based, human
Method: Organelle-specific pH measurements: The pH was measured in selective cellular compartments by targeting ratiometric pH probes to specific organelles. […] Using a Nikon epifluorescence microscope with a intensified CCD camera, the pH probe FITC was excited alternately at 450 nm and 490 nm and emission recorded with a 520/10 bandpass filter. […] In short, to calibrate the pH for the endosomal system, the chamber was perfused with 150 mM sodium buffers at pH of 5, 6 or 7 containing of monensin (20 μM) and nigericin (10 μM) for 5 minutes before recording the fluorescence. For the pH calibrations of cytosol and nucleoplasm, the cells were incubated in 140 mM potassium buffers at pH 6.0, 6.5, 7.0 and 7.5 containing nigericin (20 μM).
After endocytosis, the transferrin is transported through the endosomes and then recycled back to the surface without passage through the lysosomes.
pH in the lysosomes: The pH in the lysosomes was assayed both with light and electron microscopy. […] The pH was calibrated as described above. […] The cells were incubated one hour at room temperature, washed with several changes of PBS pH 7.4 containing 50 mM NH4Cl. […] The cells were embedded in LR White in gelatin capsules and baked at 60° C. for 24 hours in a vacuum oven, sectioned and incubated overnight at 4° C. with anti-DNP antibodies in 4% FBS, washed and incubated in gold (10 nm) labeled secondary antibodies for 2 hours. They were then stained and visualized under the electron microscope.
Cells were plated on polystyrene plates at 50% confluency. Twenty-four to thirty-six hours later, the medium was aspirated and the cells were covered with 50 μl of DME with SNARF-dextran (10 mg/ml). The cells were quickly scraped off the polystyrene and placed in pre-chilled tubes containing 1 ml DME without serum. The cells were harvested (100 g for 5 minutes), washed twice with pre-chilled DME, and plated on Lab-Tek chambers in DME with serum. The cells were allowed to recover for 24 hours prior to examination on a confocal microscope. The pH was calibrated from SNARF fluorescence as described above.
pH in the nucleus: The nucleoplasmic pH was probed by loading the cytosol with SNARF conjugated to a 10 kD dextran. This dextran is too large to cross cellular membranes, but can enter the nucleoplasm by diffusion across the nuclear pores. Confocal fluorescence microscopy was used to prepare optical sections through the cell allowing the fluorescence intensity of the nucleoplasm and cytoplasm to be quantified. The 10 kD SNARF-dextran was loaded into the cytosol and imaged using the same techniques for the 70 kD SNARF-dextrans (see above).

[4] = test system: isolated microsomes of MCF-7/ADR cells; assay: In vitro acidification of total microsomal preparation (acridine orange quenching)
Method: Acidification of Cellular Microsomes: The acidification of cellular microsomes was assayed spectrophotometrically. Two different approaches were used for assaying acidification: Acidification of the total microsomal preparation using quenching of acridine orange and acidification of the recycling endosomes by monitoring the fluorescence from a microsomal preparation from cells that had previously endocytosed FITC-transferrin.
The homogenate was centrifuged twice for 10 minutes at 3000 g to remove unbroken cells and nuclei. The supernatant was layered over 20 ml of 0.5 M sucrose (20 mM HERES (pH 7.4), 1 mM DTT, 1 mM EDTA, 1×protease inhibitor mix) and 1 ml of 2 M sucrose and centrifuged for one hour at 100,000 g (Beckman Ti60 Rotor). Microsomes are collected at the 0.5 M and 2 M interface.
Acidic vesicles accumulate acridine orange to high concentrations resulting in the self quenching of the dye. This accumulation causes depletion of the acridine orange from the extra-vesicular space, and a decrease of the overall fluorescence of the sample. […] The sample was allowed to equilibrate by stirring for 30 minutes at 25° C. After 5 minutes of recording to establish baseline, 1 mM Tris-ATP was added to begin acidification (100 mM stock, titrated to pH 7.4 with 1 M Tris-base before use).

[5] = test system: MCF-7/ADR cells; assay: Cell viability assay of Adriamycin sensitivity (Hoechst 33258 DNA content); settings: for effect on sensitivity of drug-resistant cells to Adriamycin: MCF-7/ADR (MCF-7adr) cells, agent co-incubated with adriamycin for 6 hours
Method: After 6 hours, the media was removed, the cells rinsed, and then fed with fresh media not containing drugs. […] Media was aspirated and the wells rinsed with Hanks Balanced Salt Solution (HBSS, phenol red free). The cells were sonicated in hypotonic media (0.1×HBSS) for 30 seconds. […] Calf thymus DNA was used for calibration.
Cell viability assays: The media was removed 60 hr. after plating the cells and replaced with fresh media supplemented with various concentrations of adriamycin (Calbiochem, CA) and monensin (solubilized in DMF 0.1%) (Sigma, St. Louis). After 6 hr the media was removed, the cells rinsed, and then fed with fresh media not containing drugs. […] Media was aspirated and the wells rinsed with Hanks Balanced Salt Solution (HBSS, phenol red free). The cells were sonicated in hypotonic media (0.1×HBSS) for 30 seconds. […] Calf thymus DNA was used for calibration.
Cell Viability Assays: Cell viability was assayed by plating cells at ˜1000 cells/well in 24 well plates (Falcon) in DME. […] The cells were fed daily for three days and then cell viability was quantified with two independent techniques: an assay of total DNA and an assay of volume of viable cells. […] Calf thymus DNA was used for calibration.
After three days cell viability was assayed.

CC/C(=C(\c1ccccc1)c1ccc(OCCN(C)C)cc1)c1ccccc1 [Tamoxifen]
red-orange acridine orange fluorescence of cytoplasmic organelles after addition of agent [1]: loss of the red-orange cytoplasmic fluorescence | red-orange acridine orange fluorescence of cytoplasmic organelles after addition of agent ([1]; listed as tamoxifen): steady decrease of the red acridine orange fluorescence | acridine orange staining of acidic vesicles after treatment ([1]; MCF-7adr (Examples 2, 3), nigericin 7.5 μM, tamoxifen 50 μM): loss of acridine orange staining within the pericentriolar region | Adriamycin distribution after addition of agent [2]: the concentration of Adriamycin in the nucleus was substantially increased | Adriamycin distribution after addition of agent ([2]; listed as tamoxifen): shifts the adriamycin distribution to that observed in the MCF-7 cells; also recorded: shift of Adriamycin from punctate perinuclear compartments | change with Tamoxifen, pH Lysosomes SNARF-conjugated dextran ([3]; MCF-7/ADR): >+1.1 | change with Tamoxifen, pH Recycling endosomes FITC-conjugated transferrin ([3]; MCF-7/ADR): +0.5 | change with Tamoxifen, pH lysosomes FITC conjugated dextran ([3]; MCF-7/ADR): >+1.2 | pH Cytosol (SNARF 70 kD dextran) ([3]; MCF-7/ADR + Tamoxifen (10 μM)): 7.20 ± 0.1 | pH Lysosomes SNARF-conjugated dextran ([3]; MCF-7/ADR + Tamoxifen (10 μM)): 7.1 | pH Nucleus (SNARF 10 kD dextran) ([3]; MCF-7/ADR + Tamoxifen (10 μM)): 7.20 ± 0.1 | pH Recycling endosomes FITC-conjugated transferrin ([3]; MCF-7/ADR + Tamoxifen (10 μM)): 6.7 ± 0.2 | pH lysosomes FITC conjugated dextran ([3]; MCF-7/ADR + Tamoxifen (10 μM), FITC cannot discriminate pH above 6.6): > 6.6 | pH Recycling endosomes FITC-conjugated transferrin ([3]; MCF-7/ADR + Tamoxifen (10 μM), listed as tamoxifen): 6.7 | time to almost complete dissipation of the pre-existing pH gradient ([4]; 8 μM Tamoxifen added 10 minutes after Tris-ATP): ≤ 5 minutes | cell death ([5]; 1 μM Adriamycin in the presence of 5 μM Tamoxifen, 6 hours exposure, assayed after three days): 95% | cell viability in the absence of Adriamycin ([5]; 5 μM Tamoxifen alone): no decrease in viability; also recorded: little effect on cell viability | effect on sensitivity of drug-resistant cells to Adriamycin [5]: substantially increased the sensitivity of the cells to Adriamycin | effect on sensitivity of drug-resistant cells to Adriamycin ([5]; listed as tamoxifen): significantly enhanced sensitivity to adriamycin

CC[C@@]1([C@@H]2O[C@@H]([C@H]3O[C@@](O)(CO)[C@H](C)C[C@@H]3C)C[C@@H]2C)CC[C@H]([C@]2(C)CC[C@]3(C[C@H](O)[C@@H](C)[C@@H]([C@@H](C)[C@@H](OC)[C@H](C)C(=O)O)O3)O2)O1 [Monensin]
red-orange acridine orange fluorescence of cytoplasmic organelles after addition of agent [1]: loss of the red-orange fluorescence | red-orange acridine orange fluorescence of cytoplasmic organelles after addition of agent ([1]; listed as monensin): did not exhibit the red spectral shift within the vesicles | Adriamycin distribution after addition of agent [2]: Adriamycin is found to accumulate within the nucleus | Adriamycin distribution after addition of agent ([2]; listed as monensin): redistributed Adriamycin to the nucleoplasm | shift of cytosolic pH, more alkaline ([3]; MCF-7/ADR cells, SNARF 70 kD dextran, Tamoxifen at 10 μM): 0.2 units | acidification of pre-treated microsomes ([4]; Tamoxifen 8 μM, Bafilomycin A1 10 nM, monensin concentration not given): inhibited acidification | rate of dissipation of the pre-existing pH gradient ([4]; added 10 minutes after ATP, Bafilomycin A1 100 nM, compared with tamoxifen): significantly faster than tamoxifen | effect on sensitivity of drug-resistant cells to Adriamycin [5]: increased the drug sensitivity of the MCF-7adr cells to the level observed for drug-sensitive cells
